According to patent publication US11084823B2, “Substituted pyrrolo[2,1-f][1,2,4]triazines as kinase inhibitors” (Daewoong Pharmaceutical Co., Ltd., priority 2017, dated 2021):

Experiments:
[1] = biological target: Recombinant purified human JAK3 (Homo sapiens (Human), UniProt P52333); test: JAK3 kinase inhibitory activity, ADP-Glo kinase assay kit (Promega V9441); assay type: biochemical; details: ATP 5 uM, 4 ng JAK3 per reaction, 1 hour at 30° C., chemiluminescence
Method: (§1) JAK3 and BTK kinase inhibitory activities were measured for the compounds prepared in the above Examples through in vitro analysis on the ADP Glow (Glo) platform.
(§2) Specifically, the inhibitory activities of JAK3 and BTK kinase were measured using a JAK3 kinase assay kit (Promega, V9441) and a BTK kinase assay kit (Promega, V9071) which were purchased from Promega. Recombinant purified human JAK3 and BTK were diluted with 1× kinase reaction buffer (JAK3: 40 mM Tris-Cl, pH 7.5, 20 mM MgCl2, 0.1 mg/mL BSA and 50 uM DTT/BTK: 40 mM Tris-Cl, pH 7.5, 20 mM MgCl2, 0.1 mg/mL BSA, 2 mM MnCl2 and 50 uM DTT) and added to a 96 well plate (JAK3: final concentration of 4 ng per reaction/BTK: final concentration of 8 ng per reaction). […] After incubation (30° C.) for 1 hour, equivalent volume (25 uL per reaction) of ADP Glo was added and incubated (30° C.) for 40 minutes at room temperature. Then, a kinase detection reagent (50 uL per reaction) was added and incubated (30° C.) for 30 minutes at room temperature. The kinase activity was measured by chemiluminescence according to the instructions of ADP Glo kinase assay kit, and the inhibitory activity of the compounds according to the present invention was calculated.

[2] = biological target: Recombinant purified human BTK (Homo sapiens (Human), UniProt Q06187); test: BTK kinase inhibitory activity, ADP-Glo kinase assay kit (Promega V9071); assay type: biochemical; details: ATP 10 uM, 8 ng BTK per reaction, 1 hour at 30° C., chemiluminescence
Sequence of Recombinant purified human BTK (Q06187 whole entry): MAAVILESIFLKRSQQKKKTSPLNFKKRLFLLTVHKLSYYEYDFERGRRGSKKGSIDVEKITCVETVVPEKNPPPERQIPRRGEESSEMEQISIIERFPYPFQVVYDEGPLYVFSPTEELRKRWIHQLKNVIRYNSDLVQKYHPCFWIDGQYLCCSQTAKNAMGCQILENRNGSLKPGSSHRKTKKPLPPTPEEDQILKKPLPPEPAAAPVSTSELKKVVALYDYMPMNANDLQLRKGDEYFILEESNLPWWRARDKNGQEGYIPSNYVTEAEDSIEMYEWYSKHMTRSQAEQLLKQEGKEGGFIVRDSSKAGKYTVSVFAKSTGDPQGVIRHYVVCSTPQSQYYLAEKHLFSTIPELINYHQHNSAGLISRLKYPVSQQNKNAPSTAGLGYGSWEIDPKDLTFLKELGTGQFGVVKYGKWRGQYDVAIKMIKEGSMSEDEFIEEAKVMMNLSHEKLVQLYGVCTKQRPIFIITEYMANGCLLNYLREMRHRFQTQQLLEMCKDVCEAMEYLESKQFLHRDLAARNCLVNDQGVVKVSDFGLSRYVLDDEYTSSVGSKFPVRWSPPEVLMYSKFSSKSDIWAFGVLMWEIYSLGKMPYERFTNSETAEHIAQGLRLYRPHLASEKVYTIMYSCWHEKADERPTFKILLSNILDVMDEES
Method: as §1, §2

Sequence of Recombinant purified human JAK3 (P52333 whole entry): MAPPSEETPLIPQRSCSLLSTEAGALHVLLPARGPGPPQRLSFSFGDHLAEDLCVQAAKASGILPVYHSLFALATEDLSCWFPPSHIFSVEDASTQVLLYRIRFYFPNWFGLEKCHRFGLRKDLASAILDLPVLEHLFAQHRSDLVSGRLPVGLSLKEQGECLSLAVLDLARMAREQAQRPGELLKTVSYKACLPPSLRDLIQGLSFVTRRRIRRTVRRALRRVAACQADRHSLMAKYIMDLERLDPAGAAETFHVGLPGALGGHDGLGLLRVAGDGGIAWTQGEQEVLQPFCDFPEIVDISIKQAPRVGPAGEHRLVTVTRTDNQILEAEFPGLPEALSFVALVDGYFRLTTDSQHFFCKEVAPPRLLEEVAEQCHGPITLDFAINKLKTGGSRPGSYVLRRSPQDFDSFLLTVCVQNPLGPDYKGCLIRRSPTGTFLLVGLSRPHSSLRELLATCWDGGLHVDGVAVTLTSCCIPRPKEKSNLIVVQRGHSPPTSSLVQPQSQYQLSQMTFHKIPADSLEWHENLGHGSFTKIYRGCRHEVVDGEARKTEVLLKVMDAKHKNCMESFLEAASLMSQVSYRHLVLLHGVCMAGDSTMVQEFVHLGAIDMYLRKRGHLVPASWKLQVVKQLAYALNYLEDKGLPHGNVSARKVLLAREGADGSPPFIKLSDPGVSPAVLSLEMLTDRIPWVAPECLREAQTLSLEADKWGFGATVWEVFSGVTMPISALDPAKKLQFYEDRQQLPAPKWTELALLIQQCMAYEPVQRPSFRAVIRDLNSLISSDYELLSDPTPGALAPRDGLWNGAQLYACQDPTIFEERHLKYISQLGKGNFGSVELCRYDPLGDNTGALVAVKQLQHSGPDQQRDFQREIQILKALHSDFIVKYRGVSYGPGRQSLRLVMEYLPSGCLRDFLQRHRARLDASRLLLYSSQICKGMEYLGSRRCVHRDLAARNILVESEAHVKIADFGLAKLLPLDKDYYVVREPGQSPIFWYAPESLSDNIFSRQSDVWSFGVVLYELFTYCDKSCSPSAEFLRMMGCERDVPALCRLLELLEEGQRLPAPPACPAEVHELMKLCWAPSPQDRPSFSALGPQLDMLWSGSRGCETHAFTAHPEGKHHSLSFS

Row | SMILES | IC50 [1] [nM] | IC50 [2] [nM]
1 | C=CC(=O)Nc1ccc(F)c(Oc2nc(Nc3ccc4ncsc4c3)nn3cccc23)c1 [Example 14, N-(3-((2-((benzo[d]thiazol-6-yl)amino)pyrrolo[2,1-f][1,2,4]triazin-4-yl)oxy)-4-fluorophenyl)acrylamide] | 9.8 | 43.3
2 | C=CC(=O)Nc1cc(Oc2nc(Nc3cnn(CC)c3)nn3cccc23)ccc1C [Example 47, N-(5-((2-((1-ethyl-1H-pyrazol-4-yl)amino)pyrrolo[2,1-f][1,2,4]triazin-4-yl)oxy)-2-methylphenyl)acrylamide] | 13 | 52.2
3 | C=CC(=O)Nc1ccc(F)c(Oc2nc(Nc3ccc(N4CCN(C)CC4)cc3)nn3cccc23)c1 [Example 25, N-(4-fluoro-3-((2-((4-(4-methylpiperazin-1-yl)phenyl)amino)pyrrolo[2,1-f][1,2,4]triazin-4-yl)oxy)phenyl)acrylamide] | 1.4 | 7.9
4 | C=CC(=O)Nc1ccc(F)c(Oc2nc(Nc3cc(C)ns3)nn3cccc23)c1 [Example 7, N-(4-fluoro-3-((2-((3-methylisothiazol-5-yl)amino)pyrrolo[2,1-f][1,2,4]triazin-4-yl)oxy)phenyl)acrylamide] | 0.5 | 10.7
5 | CCC#CC(=O)Nc1ccc(F)c(Oc2nc(Nc3cnn(CC(F)F)c3)nn3cccc23)c1 [Example 49, N-(3-((2-((1-(2,2-difluoroethyl)-1H-pyrazol-4-yl)amino)pyrrolo[2,1-f][1,2,4]triazin-4-yl)oxy)-4-fluorophenyl)pent-2-ynamide] | > 400 | 30
6 | C=CC(=O)Nc1ccc(F)c(Oc2nc(Nc3cnn(C(C)C)c3)nn3cccc23)c1 [Example 36, N-(4-fluoro-3-((2-((1-isopropyl-1H-pyrazol-4-yl)amino)pyrrolo[2,1-f][1,2,4]triazin-4-yl)oxy)phenyl)acrylamide] | 1.1 | 4.4
7 | C=CC(=O)Nc1cccc(Oc2nc(Nc3ccc(OC)cc3)nn3cccc23)c1 [Example 17, N-(3-((2-((4-methoxyphenyl)amino)pyrrolo[2,1-f][1,2,4]triazin-4-yl)oxy)phenyl)acrylamide] | 5.9 | 68.6
8 | C=CC(=O)Nc1ccc(F)c(Oc2nc(Nc3ccc(-n4nc(C)cc4C)cc3)nn3cccc23)c1 [Example 39, N-(3-((2-((4-(3,5-dimethyl-1H-pyrazol-1-yl)phenyl)amino)pyrrolo[2,1-f][1,2,4]triazin-4-yl)oxy)-4-fluorophenyl)acrylamide] | 23.5 | 111
9 | CCn1cc(Nc2nc(Oc3cc(NC(=O)CCl)ccc3F)c3cccn3n2)cn1 [Example 43, 2-chloro-N-(3-((2-((1-ethyl-1H-pyrazol-4-yl)amino)pyrrolo[2,1-f][1,2,4]triazin-4-yl)oxy)-4-fluorophenyl)acetamide] | 0.7 | 1.2
10 | C=CC(=O)Nc1ccc(F)c(Oc2nc(Nc3ccc(OC)cc3)nn3cccc23)c1 [Example 28, N-(4-fluoro-3-((2-((4-methoxyphenyl)amino)pyrrolo[2,1-f][1,2,4]triazin-4-yl)oxy)phenyl)acrylamide] | 9.2 | 52
11 | C=CC(=O)Nc1cccc(Oc2nc(Nc3ccsc3)nn3cccc23)c1 [Example 19, N-(3-((2-((thiophen-3-yl)amino)pyrrolo[2,1-f][1,2,4]triazin-4-yl)oxy)phenyl)acrylamide] | 5.3 | 62.9
12 | C=CC(=O)Nc1cccc(Oc2nc(Nc3ccn(C)n3)nn3cccc23)c1 [Example 20, N-(3-((2-((1-methyl-1H-pyrazol-3-yl)amino)pyrrolo[2,1-f][1,2,4]triazin-4-yl)oxy)phenyl)acrylamide] | 57.7 | 647
13 | C=CC(=O)Nc1ccc(F)c(Oc2nc(Nc3cnn(C4CCNCC4)c3)nn3cccc23)c1 [Example 37, N-(4-fluoro-3-((2-((1-(piperidin-4-yl)-1H-pyrazol-4-yl)amino)pyrrolo[2,1-f][1,2,4]triazin-4-yl)oxy)phenyl)acrylamide] | 11.5 | 63.6
14 | O=C(CCl)Nc1ccc(F)c(Oc2nc(Nc3cnn(CC(F)F)c3)nn3cccc23)c1 [Example 41, 2-chloro-N-(3-((2-((1-(2,2-difluoroethyl)-1H-pyrazol-4-yl)amino)pyrrolo[2,1-f][1,2,4]triazin-4-yl)oxy)-4-fluorophenyl)acetamide] | 0.7 | 1.2
15 | C=CC(=O)Nc1cccc(Oc2nc(Nc3ccc(CN(C)C)cc3)nn3cccc23)c1 [Example 21, N-(3-((2-((4-((dimethylamino)methyl)phenyl)amino)pyrrolo[2,1-f][1,2,4]triazin-4-yl)oxy)phenyl)acrylamide] | 11.7 | 104
16 | C=CC(=O)Nc1ccc(F)c(Oc2nc(Nc3cnn(CCN4CCOCC4)c3)nn3cccc23)c1 [Example 35, N-(4-fluoro-3-((2-((1-(2-morpholinoethyl)-1H-pyrazol-4-yl)amino)pyrrolo[2,1-f][1,2,4]triazin-4-yl)oxy)phenyl)acrylamide] | 0.7 | 3.5
17 | C=CC(=O)Nc1ccc(F)c(Oc2nc(Nc3ccc(C(=O)N4CCOCC4)cc3)nn3cccc23)c1 [Example 29, N-(4-fluoro-3-((2-((4-(morpholine-4-carbonyl)phenyl)amino)pyrrolo[2,1-f][1,2,4]triazin-4-yl)oxy)phenyl)acrylamide] | 2 | 23.1
18 | C=CC(=O)Nc1ccc(F)c(Oc2nc(Nc3ccn(C)c3)nn3cccc23)c1 [Example 9, N-(4-fluoro-3-((2-((1-methyl-1H-pyrrol-3-yl)amino)pyrrolo[2,1-f][1,2,4]triazin-4-yl)oxy)phenyl)acrylamide] | 16.8 | 243
19 | C=CC(=O)Nc1ccc(F)c(Oc2nc(Nc3ccc(Oc4ccccc4)cc3)nn3cccc23)c1 [Example 13, N-(4-fluoro-3-((2-((4-phenoxyphenyl)amino)pyrrolo[2,1-f][1,2,4]triazin-4-yl)oxy)phenyl)acrylamide] | 41.7 | 622
20 | C=CC(=O)Nc1cccc(Oc2nc(Nc3ccc(N4CCN(C)CC4)cc3)nn3cccc23)c1 [Example 2, N-(3-((2-((4-(4-methylpiperazin-1-yl)phenyl)amino)pyrrolo[2,1-f][1,2,4]triazin-4-yl)oxy)phenyl)acrylamide] | 2.8 | 22.7
21 | C=CC(=O)Nc1ccc(F)c(Oc2nc(Nc3cnn(CC(C)C)c3)nn3cccc23)c1 [Example 10, N-(4-fluoro-3-((2-((1-isobutyl-1H-pyrazol-4-yl)amino)pyrrolo[2,1-f][1,2,4]triazin-4-yl)oxy)phenyl)acrylamide] | 9.6 | 113
22 | C=CC(=O)Nc1cccc(Oc2nc(Nc3ccc(C(=O)N4CCOCC4)cc3)nn3cccc23)c1 [Example 18, N-(3-((2-((4-(morpholine-4-carbonyl)phenyl)amino)pyrrolo[2,1-f][1,2,4]triazin-4-yl)oxy)phenyl)acrylamide] | 2.2 | 37.8
23 | C=CC(=O)Nc1ccc(F)c(Oc2nc(Nc3ccc(N(C)C)cc3)nn3cccc23)c1 [Example 12, N-(3-((2-((4-(dimethylamino)phenyl)amino)pyrrolo[2,1-f][1,2,4]triazin-4-yl)oxy)-4-fluorophenyl)acrylamide] | 0.7 | 7.5
